Target: T1, hGalectin-3 (Homo sapiens, UniProt P17931)
T1 construct: made in house
Test: Gal-3 ELISA assay (hGalectin-3 neutralization binding to asialofetuin)
Settings: biotin-tagged hGalectin-3 15 nM, ASF-coated plate; read-out: hGal3 IC50

T1 sequence (P17931 whole entry): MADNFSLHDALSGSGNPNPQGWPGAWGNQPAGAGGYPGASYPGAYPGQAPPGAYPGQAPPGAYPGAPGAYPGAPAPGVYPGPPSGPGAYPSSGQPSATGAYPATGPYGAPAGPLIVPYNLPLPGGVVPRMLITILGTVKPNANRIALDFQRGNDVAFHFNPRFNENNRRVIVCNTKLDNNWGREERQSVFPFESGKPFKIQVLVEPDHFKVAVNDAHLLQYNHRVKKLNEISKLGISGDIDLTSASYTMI

Row | Structure (SMILES) | IC50 [µM]
1 | O=C([C@@H]1O[C@H](CO)[C@H](O)[C@H](n2cc(-c3cccc(F)c3)nn2)[C@H]1O)N1C[C@@H]2C[C@H]1CN2c1ccc2[nH]ccc2c1 [Example 26, ((1S,4S)-5-(1H-indol-5-yl)-2,5-diazabicyclo[2.2.1]heptan-2-yl)((2R,3R,4S,5R,6R)-4-(4-(3-fluorophenyl)-1H-1,2,3-triazol-1-yl)-3,5-dihydroxy-6-(hydroxymethyl)tetrahydro-2H-pyran-2-yl)methanone] | 0.3
2 | COc1ccc(N2C[C@@H]3C[C@H]2CN3C(=O)C[C@@H]2O[C@H](CO)[C@H](O)[C@H](n3cc(-c4cccc(F)c4)nn3)[C@H]2O)cc1 [Example 27, 2-((2S,3R,4R,5R,6R)-4-(4-(3-fluorophenyl)-1H-1,2,3-triazol-1-yl)-3,5-dihydroxy-6-(hydroxymethyl)tetrahydro-2H-pyran-2-yl)-1-((1S,4S)-5-(4-methoxyphenyl)-2,5-diazabicyclo[2.2.1]heptan-2-yl)ethanone] | 0.35
3 | O=C(C[C@@H]1O[C@H](CO)[C@H](O)[C@H](n2cc(-c3cccc(F)c3)nn2)[C@H]1O)N1C[C@@H]2C[C@H]1CN2c1ccc2c(c1)OCO2 [Example 28] | 0.58
4 | COc1ccc(N2C[C@@H]3C[C@H]2CN3C[C@@H]2O[C@H](CO)[C@H](O)[C@H](n3cc(-c4cccc(F)c4)nn3)[C@H]2O)cc1 [Example 29, (2R,3R,4R,5R,6S)-4-(4-(3-fluorophenyl)-1H-1,2,3-triazol-1-yl)-2-(hydroxymethyl)-6-(((1S,4S)-5-(4-methoxyphenyl)-2,5-diazabicyclo[2.2.1]heptan-2-yl)methyl)tetrahydro-2H-pyran-3,5-diol] | 0.25
5 | O=C(Nc1ccc(O)cc1)N1C[C@@H]2C[C@H]1CN2C(=O)[C@@H]1O[C@H](CO)[C@H](O)[C@H](n2cc(-c3cccc(F)c3)nn2)[C@H]1O [Example 30, (1S, 4S)-5-((2R, 3R, 4S, 5R, 6R)-4-(4-(3-fluorophenyl)-1H-1,2,3-triazol-1-yl)-3,5-dihydroxy-6-(hydroxymethyl)tetrahydro-2H-pyran-2-carbonyl)-N-(4-hydroxyphenyl)-2,5-diazabicyclo[2.2.1]heptane-2-carboxamide] | 0.5
6 | O=C([C@@H]1O[C@H](CO)[C@H](O)[C@H](n2cc(-c3cccc(F)c3)nn2)[C@H]1O)N1C[C@H]2C[C@@H]1CN2c1ccc2c(c1)OCO2 [Example 32] | 0.18
7 | O=C([C@@H]1O[C@H](CO)[C@H](O)[C@H](n2cc(-c3cccc(F)c3)nn2)[C@H]1O)N1CCCN(c2ccc(O)cc2)CC1 [Example 33, ((2R, 3R, 4S, 5R, 6R)-4-(4-(3-fluorophenyl)-1H-1,2,3-triazol-1-yl)-3,5-dihydroxy-6-(hydroxymethyl)tetrahydro-2H-pyran-2-yl)(4-(4-hydroxyphenyl)-1,4-diazepan-1-yl)methanone] | 0.48
8 | Cc1ccc(N2C[C@H]3CN(C(=O)[C@@H]4O[C@H](CO)[C@H](O)[C@H](n5cc(-c6cccc(F)c6)nn5)[C@H]4O)C[C@H]3C2)cc1 [Example 38, ((2R,3R,4S,5R,6R)-4-(4-(3-fluorophenyl)-1H-1,2,3-triazol-1-yl)-3,5-dihydroxy-6-(hydroxymethyl)tetrahydro-2H-pyran-2-yl)((3aR,6aS)-5-(p-tolyl)hexahydropyrrolo[3,4-c]pyrrol-2(1H)-yl)methanone] | 0.4
9 | CS(=O)(=O)Nc1ccc(N2C[C@@H]3C[C@H]2CN3C(=O)[C@@H]2O[C@H](CO)[C@H](O)[C@H](n3cc(-c4cccc(F)c4)nn3)[C@H]2O)nc1 [Example 41, N-(6-((1S,4S)-5-((2R,3R,4S,5R,6R)-4-(4-(3-fluorophenyl)-1H-1,2,3-triazol-1-yl)-3,5-dihydroxy-6-(hydroxymethyl)tetrahydro-2H-pyran-2-carbonyl)-2,5-diazabicyclo[2.2.1]heptan-2-yl)pyridin-3-yl)methanesulfonamide] | 0.72
10 | CS(=O)(=O)Nc1ccc(N2C[C@@H]3C[C@H]2CN3C(=O)[C@@H]2O[C@H](CO)[C@H](O)[C@H](n3cc(-c4cccc(F)c4)nn3)[C@H]2O)cn1 [Example 42] | 0.42
